Emax and EC50 data for 15 compounds are collected here from patent US20250074901A1, “NOVEL HETEROARYL COMPOUNDS” (ICAGEN, LLC, priority 2021, published 2025).

This experiment addresses T1, Kv7.2 (Homo sapiens, UniProt O43526).
T1 construct: expressed in transfected cells
Description: Activation of Kv7.2 (in vitro assay, concentration response curve). Format: cell-based. Particulars: for Emax: Kv7.2 activation max %; for EC50: activation of Kv7.2. The procedure, abridged: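 EC50 is the half-maximal effective concentration, relative to the Emax observed for each compound in this in vitro assay. It was derived from concentration–response curves of the agonistic effect measured over a series of concentrations.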

A word on the Emax: it is the size of the effect at its maximum, as opposed to the concentration needed. As a reminder, the EC50 is the concentration needed to bring the measured effect to its halfway point. A lower EC50 goes with greater potency.

In turn, `O=C(NCc1cc(OCC(F)(F)F)ncn1)N[C@H]1C[C@H](C(F)(F)F)C1` [Example 279, 1-[[6-(2,2,2-trifluoroethoxy)pyrimidin-4-yl]methyl]-3-[(1r,3r)-3-(trifluoromethyl)cyclobutyl]urea] yielded an Emax of 75% and an EC50 of 0.17 µM.

`Cc1cccc(NC(=O)NC(CO)c2ccnc(OC(F)F)c2)c1` (stereo not drawn) [Example 280, 1-[1-[2-(difluoromethoxy)pyridin-4-yl]-2-hydroxyethyl]-3-(3-methylphenyl)urea] yielded a maximal effect (Emax) of 67% and a 50% effective concentration (EC50) of 0.25 µM.

For `COCC(Oc1cc(CNC(=O)N[C@H]2C[C@H](C(F)(F)F)C2)ccn1)C(F)(F)F` (stereo partly drawn) [Example 281, 1-[[2-(1,1,1-trifluoro-3-methoxypropan-2-yl)oxypyridin-4-yl]methyl]-3-[3-(trifluoromethyl)cyclobutyl]urea], the Emax is 59% and the EC50 stood at 0.2 µM.

In turn, `O=C(NCc1cc(OC(F)F)ncn1)N[C@H]1C[C@H](C(F)(F)F)C1` [Example 282, 1-[[6-(difluoromethoxy)pyrimidin-4-yl]methyl]-3-[(1r,3r)-3-(trifluoromethyl)cyclobutyl]urea] returned an Emax of 78% and a half-maximal effective concentration (EC50) of 0.09 µM.

Regarding `O=C(NC(CO)c1ccnc(OCC(F)(F)F)c1)NC12CC(F)(C1)C2` (stereo not drawn) [Example 283, 1-(3-fluoro-1-bicyclo[1.1.1]pentanyl)-3-[2-hydroxy-1-[2-(2,2,2-trifluoroethoxy)pyridin-4-yl]ethyl]urea], the Emax is 68% and a half-maximal effect (EC50) was put at 0.49 µM.

For `O=C(NCc1ccnc(OCC(F)(F)F)c1)NCC1(C(F)(F)F)CC1` [Example 284, 1-[[2-(2,2,2-trifluoroethoxy)pyridin-4-yl]methyl]-3-[[1-(trifluoromethyl)cyclopropyl]methyl]urea], the Emax was determined as 82% and the EC50 came to 0.99 µM.

In turn, `O=C(NCc1ccnc(OCC(F)(F)F)c1)NC(C(F)(F)F)C(F)(F)F` [Example 285, 1-(1,1,1,3,3,3-hexafluoropropan-2-yl)-3-[[2-(2,2,2-trifluoroethoxy)pyridin-4-yl]methyl]urea] gave a maximal response (Emax) of 87% and an EC50 of 0.38 µM.

`C[C@@H](O)C(NC(=O)N[C@H]1C[C@H](C(F)(F)F)C1)c1ccnc(OC(F)F)c1` (stereo partly drawn) [Example 286, 1-[(2R)-1-[2-(difluoromethoxy)pyridin-4-yl]-2-hydroxypropyl]-3-[(1r,3r)-3-(trifluoromethyl)cyclobutyl]urea] returned a maximum response (Emax) of 66% and an EC50 of 0.55 µM.

The compound `C[C@H](O)C(NC(=O)N[C@H]1C[C@H](C(F)(F)F)C1)c1ccnc(OC(F)F)c1` (stereo partly drawn) [Example 287, 1-[(2S)-1-[2-(difluoromethoxy)pyridin-4-yl]-2-hydroxypropyl]-3-[(1r,3r)-3-(trifluoromethyl)cyclobutyl]urea] showed an Emax of 96% and a 50% effective concentration (EC50) of 0.74 µM.

Turning to `O=C(NCc1ccnc(OC(F)F)c1)N[C@@H]1CC[C@H](OC(F)(F)F)C1` [Example 288, 1-[[2-(difluoromethoxy)pyridin-4-yl]methyl]-3-[(1R,3S)-3-(trifluoromethoxy)cyclopentyl]urea], the Emax was 68% and the response was half-maximal at 0.25 µM (EC50).

`O=C(NCc1ccnc(OC(F)F)c1)NCC(O)C12CC(F)(C1)C2` (stereo not drawn) [Example 289, 1-[[2-(difluoromethoxy)pyridin-4-yl]methyl]-3-[2-(3-fluoro-1-bicyclo[1.1.1]pentanyl)-2-hydroxyethyl]urea] displayed a maximum response (Emax) of 40% and an EC50 of 0.98 µM.

The compound `O=C(NCc1ccnc(OCC(F)(F)F)c1)NCC(O)C12CC(F)(C1)C2` (stereo not drawn) [Example 290, 1-[2-(3-fluoro-1-bicyclo[1.1.1]pentanyl)-2-hydroxyethyl]-3-[[2-(2,2,2-trifluoroethoxy)pyridin-4-yl]methyl]urea] showed an Emax of 81% and a concentration giving a half-maximal response (EC50) of 0.89 µM.

Take `O=C(NCc1ccnc(OC(F)F)c1)NCC(O)C12CC(C1)C2` (stereo not drawn) [Example 291, 1-[2-(1-bicyclo[1.1.1]pentanyl)-2-hydroxyethyl]-3-[[2-(difluoromethoxy)pyridin-4-yl]methyl]urea]: the maximal response (Emax) was 64% and the EC50 came to 0.46 µM.

For the compound `O=C(NCc1ccnc(OCC(F)(F)F)c1)NCC(O)C12CC(C1)C2` (stereo not drawn) [Example 292, 1-[2-(1-bicyclo[1.1.1]pentanyl)-2-hydroxyethyl]-3-[[2-(2,2,2-trifluoroethoxy)pyridin-4-yl]methyl]urea], the Emax is 62% and the EC50 is 0.62 µM.

Regarding `O=C(NCc1ccnc(OCC(F)(F)F)c1)N[C@H]1C[C@H](C(F)F)C1` [Example 293, 1-[(1r,3r)-3-(difluoromethyl)cyclobutyl]-3-[[2-(2,2,2-trifluoroethoxy)pyridin-4-yl]methyl]urea], the Emax is 93% and the EC50 came to 0.61 µM.
